Results published in paper PMC10507085, “Pharmacological inhibition of TBK1/IKKε blunts immunopathology in a murine model of SARS-CoV-2 infection” (Nature Communications, 2023).

What was measured:
Assay in all cases: biochemical
Design in all cases: KINOMEscan competition binding, DNA-tagged kinase against immobilised ligand, qPCR read-out
Conditions in all cases: read-out: Percent Control
[1] = target: T1, RSK3(Kin.Dom.2-C-terminal) (Homo sapiens, UniProt Q15349)
T1 construct: gene RPS6KA2; Kin.Dom.2 C-terminal

MAP3K11 = MAP3K11 (Homo sapiens, UniProt Q16584)
CAMK2D = CAMK2D (Homo sapiens, UniProt Q13557)
CAMK2D, sequence (Q13557 whole entry): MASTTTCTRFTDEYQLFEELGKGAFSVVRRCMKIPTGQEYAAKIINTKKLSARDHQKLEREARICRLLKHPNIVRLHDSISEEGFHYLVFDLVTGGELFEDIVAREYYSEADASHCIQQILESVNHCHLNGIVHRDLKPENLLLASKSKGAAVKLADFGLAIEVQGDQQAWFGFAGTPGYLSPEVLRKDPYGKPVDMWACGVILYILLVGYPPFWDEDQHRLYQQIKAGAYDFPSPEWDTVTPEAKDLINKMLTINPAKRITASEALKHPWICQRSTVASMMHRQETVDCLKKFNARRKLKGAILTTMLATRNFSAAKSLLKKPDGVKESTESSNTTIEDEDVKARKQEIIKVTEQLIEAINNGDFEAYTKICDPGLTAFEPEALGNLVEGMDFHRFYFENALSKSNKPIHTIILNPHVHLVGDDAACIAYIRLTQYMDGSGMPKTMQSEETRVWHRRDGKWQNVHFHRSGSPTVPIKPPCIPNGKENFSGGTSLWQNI

TBK1 = TBK1 (Homo sapiens, UniProt Q9UHD2)
TBK1, sequence (Q9UHD2 whole entry): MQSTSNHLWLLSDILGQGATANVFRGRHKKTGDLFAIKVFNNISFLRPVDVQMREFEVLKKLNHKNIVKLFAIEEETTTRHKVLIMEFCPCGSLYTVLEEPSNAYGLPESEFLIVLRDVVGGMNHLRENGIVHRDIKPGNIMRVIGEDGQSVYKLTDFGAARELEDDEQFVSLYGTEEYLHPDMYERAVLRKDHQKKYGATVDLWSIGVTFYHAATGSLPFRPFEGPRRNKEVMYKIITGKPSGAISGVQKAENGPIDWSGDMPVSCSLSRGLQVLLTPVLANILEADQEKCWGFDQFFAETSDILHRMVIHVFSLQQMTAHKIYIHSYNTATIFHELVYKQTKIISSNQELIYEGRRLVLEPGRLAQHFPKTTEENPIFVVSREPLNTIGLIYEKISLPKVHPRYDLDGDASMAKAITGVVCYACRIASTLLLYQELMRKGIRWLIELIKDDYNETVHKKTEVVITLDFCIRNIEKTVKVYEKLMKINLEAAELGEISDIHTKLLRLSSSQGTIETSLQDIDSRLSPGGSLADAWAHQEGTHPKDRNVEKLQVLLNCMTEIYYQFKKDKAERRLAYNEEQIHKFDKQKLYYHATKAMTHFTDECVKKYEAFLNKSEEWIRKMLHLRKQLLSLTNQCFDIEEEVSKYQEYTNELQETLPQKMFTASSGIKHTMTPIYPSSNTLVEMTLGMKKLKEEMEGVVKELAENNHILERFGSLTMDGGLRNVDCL

MAP2K3 = MAP2K3 (Homo sapiens, UniProt P46734)
MAP3K6 = MAP3K6 (Homo sapiens, UniProt O95382)
MAP4K2 = MAP4K2 (Homo sapiens, UniProt Q12851)
CDK2 = CDK2 (Homo sapiens, UniProt P24941)
PLK2 = PLK2 (Homo sapiens, UniProt Q9NYY3)
DDR1 = DDR1 (Homo sapiens, UniProt Q08345)
[2] = target: T2, JAK2(JH1domain-catalytic) (Homo sapiens, UniProt O60674)
T2 construct: JH1 domain catalytic
T2 sequence (O60674 whole entry, the tested form may be a part): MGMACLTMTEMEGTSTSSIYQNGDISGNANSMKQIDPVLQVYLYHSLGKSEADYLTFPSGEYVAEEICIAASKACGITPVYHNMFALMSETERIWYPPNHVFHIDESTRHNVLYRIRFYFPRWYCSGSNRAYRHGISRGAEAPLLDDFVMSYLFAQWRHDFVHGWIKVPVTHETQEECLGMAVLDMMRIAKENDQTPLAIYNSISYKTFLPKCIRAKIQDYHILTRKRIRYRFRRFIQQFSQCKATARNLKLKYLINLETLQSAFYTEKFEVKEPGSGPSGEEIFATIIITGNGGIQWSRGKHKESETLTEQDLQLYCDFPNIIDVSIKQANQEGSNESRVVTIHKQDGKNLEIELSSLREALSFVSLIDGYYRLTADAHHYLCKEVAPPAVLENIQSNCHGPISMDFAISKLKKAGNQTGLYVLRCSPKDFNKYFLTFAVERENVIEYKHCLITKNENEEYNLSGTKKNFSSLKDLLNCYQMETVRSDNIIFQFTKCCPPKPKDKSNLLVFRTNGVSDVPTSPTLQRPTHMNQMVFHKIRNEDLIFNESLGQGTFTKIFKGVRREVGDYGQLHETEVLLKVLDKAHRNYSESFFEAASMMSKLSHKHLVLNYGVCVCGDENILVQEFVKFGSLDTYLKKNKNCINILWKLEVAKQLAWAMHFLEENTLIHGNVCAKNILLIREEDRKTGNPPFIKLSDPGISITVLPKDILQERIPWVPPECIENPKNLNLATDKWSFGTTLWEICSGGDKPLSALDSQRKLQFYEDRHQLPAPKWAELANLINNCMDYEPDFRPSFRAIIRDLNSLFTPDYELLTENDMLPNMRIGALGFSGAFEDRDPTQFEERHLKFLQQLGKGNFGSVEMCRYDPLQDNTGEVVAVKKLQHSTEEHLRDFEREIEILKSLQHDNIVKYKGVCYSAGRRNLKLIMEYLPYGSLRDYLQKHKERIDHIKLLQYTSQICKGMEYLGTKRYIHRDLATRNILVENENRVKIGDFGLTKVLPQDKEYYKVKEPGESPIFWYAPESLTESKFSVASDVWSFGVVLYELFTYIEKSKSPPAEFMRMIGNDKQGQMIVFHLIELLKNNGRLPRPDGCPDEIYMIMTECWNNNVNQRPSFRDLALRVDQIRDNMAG

FGR = FGR (Homo sapiens, UniProt P09769)
FGR, sequence (P09769 whole entry): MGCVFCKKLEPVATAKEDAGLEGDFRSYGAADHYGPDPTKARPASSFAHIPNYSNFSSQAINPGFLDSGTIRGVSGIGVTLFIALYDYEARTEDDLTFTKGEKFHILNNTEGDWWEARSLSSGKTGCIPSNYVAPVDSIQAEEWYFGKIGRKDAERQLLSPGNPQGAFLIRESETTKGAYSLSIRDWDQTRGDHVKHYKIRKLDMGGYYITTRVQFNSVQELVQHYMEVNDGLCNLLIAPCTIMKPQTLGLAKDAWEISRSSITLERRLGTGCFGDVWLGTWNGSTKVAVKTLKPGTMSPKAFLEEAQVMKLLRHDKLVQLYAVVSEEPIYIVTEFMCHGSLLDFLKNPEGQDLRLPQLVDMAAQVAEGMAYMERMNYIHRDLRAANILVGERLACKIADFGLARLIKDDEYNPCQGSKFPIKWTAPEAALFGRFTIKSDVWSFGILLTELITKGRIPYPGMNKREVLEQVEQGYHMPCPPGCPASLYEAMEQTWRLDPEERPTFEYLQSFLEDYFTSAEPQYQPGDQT

DDR2 = DDR2 (Homo sapiens, UniProt Q16832)
RIOK1 = RIOK1 (Homo sapiens, UniProt Q9BRS2)
RIOK1, sequence (Q9BRS2 whole entry): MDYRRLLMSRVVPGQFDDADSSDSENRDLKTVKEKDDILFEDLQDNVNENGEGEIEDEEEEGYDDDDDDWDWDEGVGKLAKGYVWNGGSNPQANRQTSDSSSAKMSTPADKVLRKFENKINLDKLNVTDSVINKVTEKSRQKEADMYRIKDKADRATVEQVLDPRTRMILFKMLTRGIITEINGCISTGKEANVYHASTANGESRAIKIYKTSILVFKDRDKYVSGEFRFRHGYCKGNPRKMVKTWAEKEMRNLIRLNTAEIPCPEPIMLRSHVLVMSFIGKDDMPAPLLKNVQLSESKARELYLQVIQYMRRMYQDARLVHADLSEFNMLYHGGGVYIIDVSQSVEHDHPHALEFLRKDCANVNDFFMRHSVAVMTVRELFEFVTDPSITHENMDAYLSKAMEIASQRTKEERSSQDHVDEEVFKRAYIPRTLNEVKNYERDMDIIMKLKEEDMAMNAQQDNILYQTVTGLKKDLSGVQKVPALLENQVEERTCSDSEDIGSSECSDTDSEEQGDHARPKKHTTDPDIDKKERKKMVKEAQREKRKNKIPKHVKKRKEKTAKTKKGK

ERBB4 = ERBB4 (Homo sapiens, UniProt Q15303)
PRKG1 = PRKG1 (Homo sapiens, UniProt Q13976)
HIPK3 = HIPK3 (Homo sapiens, UniProt Q9H422)
MAP3K15 = MAP3K15 (Homo sapiens, UniProt Q6ZN16)
MARK4 = MARK4 (Homo sapiens, UniProt Q96L34)
KDR = KDR (Homo sapiens, UniProt P35968)
KDR, sequence (P35968 whole entry): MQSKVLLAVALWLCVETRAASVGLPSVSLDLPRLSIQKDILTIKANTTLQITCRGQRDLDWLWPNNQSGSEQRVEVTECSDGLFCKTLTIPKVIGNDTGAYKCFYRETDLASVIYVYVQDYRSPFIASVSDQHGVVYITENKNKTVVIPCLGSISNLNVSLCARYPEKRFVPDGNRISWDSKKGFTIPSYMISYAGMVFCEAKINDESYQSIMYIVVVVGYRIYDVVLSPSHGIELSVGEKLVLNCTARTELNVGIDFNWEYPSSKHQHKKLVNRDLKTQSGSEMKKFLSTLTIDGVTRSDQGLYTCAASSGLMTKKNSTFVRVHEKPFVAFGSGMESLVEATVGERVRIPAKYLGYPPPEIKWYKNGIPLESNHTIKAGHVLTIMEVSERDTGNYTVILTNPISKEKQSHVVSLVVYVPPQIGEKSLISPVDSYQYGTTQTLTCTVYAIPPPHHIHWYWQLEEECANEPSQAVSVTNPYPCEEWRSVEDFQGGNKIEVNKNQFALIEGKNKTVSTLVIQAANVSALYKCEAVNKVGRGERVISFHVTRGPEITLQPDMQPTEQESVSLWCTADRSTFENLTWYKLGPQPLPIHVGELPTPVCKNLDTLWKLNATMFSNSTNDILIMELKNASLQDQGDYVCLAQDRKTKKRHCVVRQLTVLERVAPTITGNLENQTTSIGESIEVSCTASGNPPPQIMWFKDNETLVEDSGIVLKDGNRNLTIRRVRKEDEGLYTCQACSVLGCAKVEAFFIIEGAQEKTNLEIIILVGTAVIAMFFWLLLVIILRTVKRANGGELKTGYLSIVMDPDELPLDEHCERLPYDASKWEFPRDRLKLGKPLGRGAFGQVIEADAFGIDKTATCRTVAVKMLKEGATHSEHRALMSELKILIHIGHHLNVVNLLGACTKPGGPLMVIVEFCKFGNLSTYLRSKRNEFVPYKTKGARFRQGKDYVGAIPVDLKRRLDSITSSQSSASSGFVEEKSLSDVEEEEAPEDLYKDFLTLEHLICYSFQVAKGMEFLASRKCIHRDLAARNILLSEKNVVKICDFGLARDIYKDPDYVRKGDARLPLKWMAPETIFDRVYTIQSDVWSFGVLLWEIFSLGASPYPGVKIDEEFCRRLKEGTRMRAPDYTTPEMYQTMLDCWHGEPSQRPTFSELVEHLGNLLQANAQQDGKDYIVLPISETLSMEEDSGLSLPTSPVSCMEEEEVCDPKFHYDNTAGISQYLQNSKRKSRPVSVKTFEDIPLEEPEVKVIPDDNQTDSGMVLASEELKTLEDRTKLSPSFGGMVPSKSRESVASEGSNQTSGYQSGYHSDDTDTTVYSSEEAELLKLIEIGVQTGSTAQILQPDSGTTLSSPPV

For `Oc1ccc(C2=Cc3ccc(O)cc3OC2)cc1` [compound 1, idronoxil], the remaining binding at 10 µM [1] was 75%, the remaining binding at 10 µM (MAP3K11) was 63% and the remaining binding at 10 µM (CAMK2D) was 84%. The remaining binding at 10 µM (TBK1) was 99%, the remaining binding at 10 µM (MAP2K3) was 56% and the remaining binding at 10 µM (MAP3K6) was 88%. It also gave a remaining binding at 10 µM (MAP4K2) of 26%, a remaining binding at 10 µM (CDK2) of 92% and a remaining binding at 10 µM (PLK2) of 80%. For the same molecule, the remaining binding at 10 µM (DDR1) was 87%, the remaining binding at 10 µM [2] was 81% and the remaining binding at 10 µM (FGR) was 74%. For the same molecule, the remaining binding at 10 µM (DDR2) was 100%, the remaining binding at 10 µM (RIOK1) was 98% and the remaining binding at 10 µM (ERBB4) was 91%. The remaining binding at 10 µM (PRKG1) was 74%, the remaining binding at 10 µM (HIPK3) was 33% and the remaining binding at 10 µM (MAP3K15) was 100%. For the same molecule, the remaining binding at 10 µM (MARK4) was 97% and the remaining binding at 10 µM (KDR) was 61%.
